From PMC8550792, “Evolution of kinase polypharmacology across HSP90 drug discovery” (Cell Chemical Biology, 2021)

Key:
Assay in all cases: biochemical
Type in all cases: biochemical
382 unique human kinases [1] = target: T1, 382 unique human kinases (Homo sapiens, UniProt P00533, C797S); details: EGFR (C797S), 10 uM; for remaining activity at 10 µM: read-out: % Enzyme Activity (relative to DMSO controls)
T1 construct: purchased Reaction Biology (HotSpot contract assay)

382 unique human kinases [2] = target: T2, 382 unique human kinases (Homo sapiens, UniProt P22607); details: FGFR3, 10 uM; for remaining activity at 10 µM: read-out: % Enzyme Activity (relative to DMSO controls)
T2 construct: purchased Reaction Biology (HotSpot contract assay)

382 unique human kinases [3] = target: T3, 382 unique human kinases (Homo sapiens, UniProt Q06187, E41K); details: BTK (E41K), 10 uM; for remaining activity at 10 µM: read-out: % Enzyme Activity (relative to DMSO controls)
T3 construct: purchased Reaction Biology (HotSpot contract assay)

382 unique human kinases [4] = target: T4, 382 unique human kinases (Homo sapiens, UniProt P49760); details: CLK2, 10 uM; for remaining activity at 10 µM: read-out: % Enzyme Activity (relative to DMSO controls)
T4 construct: purchased Reaction Biology (HotSpot contract assay)

382 unique human kinases [5] = target: T5, 382 unique human kinases (Homo sapiens, UniProt Q15759); details: kinase P38b/MAPK11, compound 10 uM; for remaining activity at 10 µM: read-out: % Enzyme Activity (relative to DMSO controls)
T5 construct: purchased Reaction Biology (HotSpot contract assay)

382 unique human kinases [6] = target: T6, 382 unique human kinases (Homo sapiens, UniProt P00533, G719C); details: kinase EGFR (G719C), compound 10 uM; for remaining activity at 10 µM: read-out: % Enzyme Activity (relative to DMSO controls)
T6 construct: purchased Reaction Biology (HotSpot contract assay)

382 unique human kinases [7] = target: T7, 382 unique human kinases (Homo sapiens, UniProt Q07002); details: CDK18/cyclin Y (PCTK3), compound at 10 uM, duplicate values; for remaining activity at 10 µM: read-out: % Enzyme Activity (relative to DMSO controls)
T7 construct: purchased Reaction Biology (HotSpot contract assay)

382 unique human kinases [8] = target: T8, 382 unique human kinases (Homo sapiens, UniProt Q16620); details: TRKB, [ATP] 50 µM, compound 10 uM; for remaining activity at 10 µM: read-out: % Enzyme Activity (relative to DMSO controls)
T8 construct: purchased Reaction Biology (HotSpot contract assay)

382 unique human kinases [9] = target: T9, 382 unique human kinases (Homo sapiens, UniProt Q9Y243); details: AKT3, 10 uM; for remaining activity at 10 µM: read-out: % Enzyme Activity (relative to DMSO controls)
T9 construct: purchased Reaction Biology (HotSpot contract assay)

382 unique human kinases [10] = target: T10, 382 unique human kinases (Homo sapiens, UniProt P08581, P991S); details: c-MET (P991S), 10 uM; for remaining activity at 10 µM: read-out: % Enzyme Activity (relative to DMSO controls)
T10 construct: purchased Reaction Biology (HotSpot contract assay)

382 unique human kinases [11] = target: T11, 382 unique human kinases (Homo sapiens, UniProt P45985); details: MKK4, [ATP] 2.5 µM, compound 10 uM; for remaining activity at 10 µM: read-out: % Enzyme Activity (relative to DMSO controls)
T11 construct: purchased Reaction Biology (HotSpot contract assay)
T11 sequence (P45985 1-399): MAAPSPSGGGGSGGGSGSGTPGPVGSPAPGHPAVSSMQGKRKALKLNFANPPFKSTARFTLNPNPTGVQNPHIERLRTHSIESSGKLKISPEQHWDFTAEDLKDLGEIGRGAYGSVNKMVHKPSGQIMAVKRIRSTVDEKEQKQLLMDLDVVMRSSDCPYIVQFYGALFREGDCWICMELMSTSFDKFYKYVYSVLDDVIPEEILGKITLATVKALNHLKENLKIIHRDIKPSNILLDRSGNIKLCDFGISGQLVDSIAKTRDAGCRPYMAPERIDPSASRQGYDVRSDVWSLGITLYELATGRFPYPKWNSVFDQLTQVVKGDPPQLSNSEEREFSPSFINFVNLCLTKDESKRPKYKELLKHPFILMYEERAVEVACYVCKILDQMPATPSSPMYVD

382 unique human kinases [12] = target: T12, 382 unique human kinases (Homo sapiens, UniProt P06241); details: FYN, [ATP] 30 µM
T12 construct: purchased Reaction Biology (HotSpot contract assay)

382 unique human kinases [13] = target: T13, 382 unique human kinases (Homo sapiens, UniProt O60674); details: JAK2, [ATP] 2.5 µM, compound 10 uM; for remaining activity at 10 µM: read-out: % Enzyme Activity (relative to DMSO controls)
T13 construct: purchased Reaction Biology (HotSpot contract assay)

382 unique human kinases [14] = target: T14, 382 unique human kinases (Homo sapiens, UniProt P10721, V559D); details: c-Kit (V559D), [ATP] 20 µM, compound 10 uM; for remaining activity at 10 µM: read-out: % Enzyme Activity (relative to DMSO controls)
T14 construct: purchased Reaction Biology (HotSpot contract assay)

382 unique human kinases [15] = target: T15, 382 unique human kinases (Homo sapiens, UniProt O94806); details: PKCnu/PRKD3, [ATP] 30 µM, compound 10 uM; for remaining activity at 10 µM: read-out: % Enzyme Activity (relative to DMSO controls)
T15 construct: purchased Reaction Biology (HotSpot contract assay)
T15 sequence (O94806 1-890): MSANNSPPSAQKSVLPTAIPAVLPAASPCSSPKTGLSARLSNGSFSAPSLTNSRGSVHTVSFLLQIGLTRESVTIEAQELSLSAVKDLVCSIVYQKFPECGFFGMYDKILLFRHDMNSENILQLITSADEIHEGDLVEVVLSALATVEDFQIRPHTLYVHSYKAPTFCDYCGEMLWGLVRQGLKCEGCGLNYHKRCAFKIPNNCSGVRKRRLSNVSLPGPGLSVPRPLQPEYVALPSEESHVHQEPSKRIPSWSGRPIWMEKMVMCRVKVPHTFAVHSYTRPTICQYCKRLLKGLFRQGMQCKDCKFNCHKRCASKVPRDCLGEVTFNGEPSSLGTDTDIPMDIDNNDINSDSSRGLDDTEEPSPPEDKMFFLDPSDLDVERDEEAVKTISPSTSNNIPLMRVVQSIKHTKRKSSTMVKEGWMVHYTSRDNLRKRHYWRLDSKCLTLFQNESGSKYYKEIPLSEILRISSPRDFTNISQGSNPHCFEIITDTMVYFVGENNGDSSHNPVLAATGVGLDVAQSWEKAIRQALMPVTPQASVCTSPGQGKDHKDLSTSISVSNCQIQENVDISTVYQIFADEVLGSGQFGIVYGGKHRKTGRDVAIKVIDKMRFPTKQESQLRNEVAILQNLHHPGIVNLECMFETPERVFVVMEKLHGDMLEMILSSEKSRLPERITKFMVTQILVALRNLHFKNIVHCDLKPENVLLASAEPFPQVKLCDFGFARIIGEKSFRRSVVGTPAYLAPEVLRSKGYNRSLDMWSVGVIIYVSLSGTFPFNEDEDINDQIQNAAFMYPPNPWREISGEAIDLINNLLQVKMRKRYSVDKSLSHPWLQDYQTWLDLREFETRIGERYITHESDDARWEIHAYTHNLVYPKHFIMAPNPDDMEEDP

382 unique human kinases [16] = target: T16, 382 unique human kinases (Homo sapiens, UniProt P53350); details: PLK1, [ATP] 30 µM
T16 construct: purchased Reaction Biology (HotSpot contract assay)

382 unique human kinases [17] = target: T17, 382 unique human kinases (Homo sapiens, UniProt P00519, Y253H); details: ABL1 (Y253H), [ATP] 10 µM, compound 10 uM; for remaining activity at 10 µM: read-out: % Enzyme Activity (relative to DMSO controls)
T17 construct: purchased Reaction Biology (HotSpot contract assay)

382 unique human kinases [18] = target: T18, 382 unique human kinases (Homo sapiens, UniProt Q9UQM7); details: CAMK2a, 10 uM; for remaining activity at 10 µM: read-out: % Enzyme Activity (relative to DMSO controls)
T18 construct: purchased Reaction Biology (HotSpot contract assay)

[19] = compound 1 uM, read-out: % Enzyme Activity (relative to DMSO controls)
[20] = compound 10 uM, read-out: % Enzyme Activity (relative to DMSO controls)

T5 sequence (Q15759 whole entry): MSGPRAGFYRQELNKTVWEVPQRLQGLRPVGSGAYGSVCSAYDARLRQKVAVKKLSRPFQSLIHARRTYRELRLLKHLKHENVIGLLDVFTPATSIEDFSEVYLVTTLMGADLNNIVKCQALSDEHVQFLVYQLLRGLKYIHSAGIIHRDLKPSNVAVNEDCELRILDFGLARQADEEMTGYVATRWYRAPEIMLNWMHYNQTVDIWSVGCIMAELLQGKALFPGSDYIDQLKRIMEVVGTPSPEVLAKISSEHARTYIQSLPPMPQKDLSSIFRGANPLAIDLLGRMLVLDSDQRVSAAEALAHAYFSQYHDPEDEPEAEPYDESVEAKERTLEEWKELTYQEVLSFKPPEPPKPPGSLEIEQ
T3 sequence (Q06187 whole entry E41K): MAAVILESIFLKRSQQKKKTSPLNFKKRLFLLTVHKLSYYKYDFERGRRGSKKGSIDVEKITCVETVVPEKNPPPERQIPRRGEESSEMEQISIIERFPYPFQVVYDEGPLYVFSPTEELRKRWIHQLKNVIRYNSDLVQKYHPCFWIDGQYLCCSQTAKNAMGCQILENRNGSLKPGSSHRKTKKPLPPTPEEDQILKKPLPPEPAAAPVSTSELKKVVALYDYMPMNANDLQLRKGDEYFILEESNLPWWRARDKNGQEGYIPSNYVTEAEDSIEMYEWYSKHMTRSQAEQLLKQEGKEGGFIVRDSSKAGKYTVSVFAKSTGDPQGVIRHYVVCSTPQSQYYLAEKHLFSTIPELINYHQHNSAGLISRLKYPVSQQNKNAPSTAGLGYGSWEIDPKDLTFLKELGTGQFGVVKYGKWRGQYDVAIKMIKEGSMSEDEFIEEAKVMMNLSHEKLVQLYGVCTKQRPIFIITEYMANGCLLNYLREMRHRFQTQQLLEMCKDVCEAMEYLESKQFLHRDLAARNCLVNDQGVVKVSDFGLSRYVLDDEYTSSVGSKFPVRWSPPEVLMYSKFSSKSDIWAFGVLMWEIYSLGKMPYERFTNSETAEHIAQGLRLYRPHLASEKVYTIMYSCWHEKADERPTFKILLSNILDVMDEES
T9 sequence (Q9Y243 whole entry): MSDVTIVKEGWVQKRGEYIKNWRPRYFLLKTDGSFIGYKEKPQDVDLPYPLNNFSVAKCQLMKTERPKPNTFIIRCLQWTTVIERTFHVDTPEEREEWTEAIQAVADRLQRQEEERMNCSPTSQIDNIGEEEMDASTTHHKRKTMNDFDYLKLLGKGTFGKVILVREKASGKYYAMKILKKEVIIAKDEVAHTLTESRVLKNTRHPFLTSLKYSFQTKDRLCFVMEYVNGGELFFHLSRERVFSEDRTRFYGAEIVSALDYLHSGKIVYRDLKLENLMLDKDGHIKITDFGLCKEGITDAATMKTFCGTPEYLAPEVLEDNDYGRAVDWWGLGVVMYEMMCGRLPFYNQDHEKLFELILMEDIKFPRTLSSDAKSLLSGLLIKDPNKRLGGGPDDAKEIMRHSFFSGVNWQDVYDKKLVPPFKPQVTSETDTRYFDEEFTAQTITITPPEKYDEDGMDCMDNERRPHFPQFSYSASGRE
T17 sequence (P00519 whole entry Y253H): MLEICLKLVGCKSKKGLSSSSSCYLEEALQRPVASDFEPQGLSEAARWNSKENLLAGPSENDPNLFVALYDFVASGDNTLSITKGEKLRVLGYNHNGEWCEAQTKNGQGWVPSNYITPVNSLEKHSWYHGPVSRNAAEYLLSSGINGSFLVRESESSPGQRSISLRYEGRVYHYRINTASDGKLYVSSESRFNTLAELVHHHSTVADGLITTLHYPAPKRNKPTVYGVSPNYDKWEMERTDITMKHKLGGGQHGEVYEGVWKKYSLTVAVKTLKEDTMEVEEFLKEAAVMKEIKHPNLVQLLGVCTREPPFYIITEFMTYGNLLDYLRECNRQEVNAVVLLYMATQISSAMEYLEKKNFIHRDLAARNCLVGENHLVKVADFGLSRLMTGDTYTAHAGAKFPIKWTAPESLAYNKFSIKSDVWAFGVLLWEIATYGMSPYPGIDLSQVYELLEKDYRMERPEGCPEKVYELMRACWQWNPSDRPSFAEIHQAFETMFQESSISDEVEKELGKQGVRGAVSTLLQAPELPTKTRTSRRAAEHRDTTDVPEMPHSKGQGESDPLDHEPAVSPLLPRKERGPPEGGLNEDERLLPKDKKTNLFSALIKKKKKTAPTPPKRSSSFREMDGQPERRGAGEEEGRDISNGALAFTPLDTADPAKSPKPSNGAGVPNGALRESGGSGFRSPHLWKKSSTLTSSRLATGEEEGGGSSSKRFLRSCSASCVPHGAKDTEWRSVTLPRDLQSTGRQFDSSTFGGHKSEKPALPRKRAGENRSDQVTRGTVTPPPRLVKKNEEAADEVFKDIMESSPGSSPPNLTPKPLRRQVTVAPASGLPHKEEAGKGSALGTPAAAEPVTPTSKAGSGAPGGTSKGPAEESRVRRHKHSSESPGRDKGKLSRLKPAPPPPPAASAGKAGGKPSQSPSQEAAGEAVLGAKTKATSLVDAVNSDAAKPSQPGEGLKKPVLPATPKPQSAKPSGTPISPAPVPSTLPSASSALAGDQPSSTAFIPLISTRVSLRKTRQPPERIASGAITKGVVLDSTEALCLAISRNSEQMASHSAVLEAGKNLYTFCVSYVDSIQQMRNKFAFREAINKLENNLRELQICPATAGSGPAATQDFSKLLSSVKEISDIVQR
T14 sequence (P10721 26-976 V559D): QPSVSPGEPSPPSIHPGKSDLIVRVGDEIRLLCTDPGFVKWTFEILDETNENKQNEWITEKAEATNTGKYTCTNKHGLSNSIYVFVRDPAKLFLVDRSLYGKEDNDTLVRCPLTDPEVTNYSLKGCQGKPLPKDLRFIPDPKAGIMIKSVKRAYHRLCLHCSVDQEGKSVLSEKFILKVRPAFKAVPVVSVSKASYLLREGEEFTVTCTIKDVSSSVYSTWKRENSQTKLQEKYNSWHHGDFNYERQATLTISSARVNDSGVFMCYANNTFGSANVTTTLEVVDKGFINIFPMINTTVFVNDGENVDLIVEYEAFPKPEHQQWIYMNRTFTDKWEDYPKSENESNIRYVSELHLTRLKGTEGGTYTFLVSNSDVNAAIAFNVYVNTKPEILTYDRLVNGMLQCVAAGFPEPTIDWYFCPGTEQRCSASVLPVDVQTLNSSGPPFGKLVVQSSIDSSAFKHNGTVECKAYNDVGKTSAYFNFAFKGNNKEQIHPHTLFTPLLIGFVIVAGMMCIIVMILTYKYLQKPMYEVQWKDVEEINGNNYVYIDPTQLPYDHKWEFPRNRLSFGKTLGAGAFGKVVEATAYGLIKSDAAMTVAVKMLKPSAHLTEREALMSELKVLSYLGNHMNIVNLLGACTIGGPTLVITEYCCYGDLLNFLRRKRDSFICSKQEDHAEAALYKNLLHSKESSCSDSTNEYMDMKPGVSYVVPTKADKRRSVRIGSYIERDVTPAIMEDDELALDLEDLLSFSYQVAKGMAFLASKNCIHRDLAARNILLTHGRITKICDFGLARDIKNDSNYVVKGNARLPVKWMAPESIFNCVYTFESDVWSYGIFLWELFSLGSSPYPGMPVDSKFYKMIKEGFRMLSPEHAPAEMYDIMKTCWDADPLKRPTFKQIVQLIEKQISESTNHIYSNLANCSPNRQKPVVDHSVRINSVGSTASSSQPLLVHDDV
T8 sequence (Q16620 32-822): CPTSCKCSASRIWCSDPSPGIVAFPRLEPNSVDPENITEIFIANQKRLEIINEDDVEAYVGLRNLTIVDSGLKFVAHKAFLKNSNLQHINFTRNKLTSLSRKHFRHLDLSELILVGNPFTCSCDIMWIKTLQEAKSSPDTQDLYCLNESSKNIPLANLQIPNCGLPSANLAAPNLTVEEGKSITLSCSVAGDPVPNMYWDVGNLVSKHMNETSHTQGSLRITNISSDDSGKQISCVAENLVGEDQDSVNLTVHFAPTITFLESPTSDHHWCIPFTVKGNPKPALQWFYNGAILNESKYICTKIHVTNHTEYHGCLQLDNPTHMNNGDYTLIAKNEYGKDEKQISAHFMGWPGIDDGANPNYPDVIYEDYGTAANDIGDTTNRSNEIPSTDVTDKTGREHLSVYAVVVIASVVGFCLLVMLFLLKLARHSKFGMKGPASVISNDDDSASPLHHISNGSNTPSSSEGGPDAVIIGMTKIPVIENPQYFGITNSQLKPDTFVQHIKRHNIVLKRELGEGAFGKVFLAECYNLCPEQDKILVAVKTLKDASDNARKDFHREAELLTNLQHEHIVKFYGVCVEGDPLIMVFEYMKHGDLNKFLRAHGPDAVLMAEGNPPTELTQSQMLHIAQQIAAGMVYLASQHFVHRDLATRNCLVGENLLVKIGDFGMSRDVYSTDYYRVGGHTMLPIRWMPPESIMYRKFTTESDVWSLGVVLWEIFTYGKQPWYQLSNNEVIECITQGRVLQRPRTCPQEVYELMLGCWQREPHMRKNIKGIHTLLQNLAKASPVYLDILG
T12 sequence (P06241 whole entry): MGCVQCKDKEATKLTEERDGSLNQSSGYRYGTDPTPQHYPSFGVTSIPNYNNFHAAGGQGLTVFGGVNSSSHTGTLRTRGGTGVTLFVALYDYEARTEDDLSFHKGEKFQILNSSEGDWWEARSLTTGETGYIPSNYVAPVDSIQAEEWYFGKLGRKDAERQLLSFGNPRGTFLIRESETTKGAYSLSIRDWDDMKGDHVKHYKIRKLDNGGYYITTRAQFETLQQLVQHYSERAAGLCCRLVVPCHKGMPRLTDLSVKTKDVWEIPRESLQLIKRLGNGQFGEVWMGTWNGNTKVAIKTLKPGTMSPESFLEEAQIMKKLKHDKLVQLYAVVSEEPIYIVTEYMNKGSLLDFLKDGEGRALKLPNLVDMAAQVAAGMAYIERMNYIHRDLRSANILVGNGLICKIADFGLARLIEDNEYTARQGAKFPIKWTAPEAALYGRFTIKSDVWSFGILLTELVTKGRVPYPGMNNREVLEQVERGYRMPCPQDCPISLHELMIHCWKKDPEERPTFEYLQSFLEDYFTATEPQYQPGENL

Structure (SMILES) | remaining activity at 10 µM (382 unique human kinases [1]) | remaining activity at 10 µM (382 unique human kinases [2]) | remaining activity at 10 µM (382 unique human kinases [3]) | remaining activity at 10 µM (382 unique human kinases [4]) | remaining activity at 10 µM (382 unique human kinases [5]) | remaining activity at 10 µM (382 unique human kinases [6]) | remaining activity at 10 µM (382 unique human kinases [7]) | remaining activity at 10 µM (382 unique human kinases [8]) | remaining activity at 10 µM (382 unique human kinases [9]) | remaining activity at 10 µM (382 unique human kinases [10]) | remaining activity at 10 µM (382 unique human kinases [11]) | remaining activity at 10 µM (382 unique human kinases [13]) | remaining activity at 10 µM (382 unique human kinases [14]) | remaining activity at 10 µM (382 unique human kinases [15]) | remaining activity at 10 µM (382 unique human kinases [16]; [20]) | remaining activity at 10 µM (382 unique human kinases [17]) | remaining activity at 10 µM (382 unique human kinases [18]) | other results
CC(C)c1cc(-c2n[nH]c(=O)n2-c2ccc3c(ccn3C)c2)c(O)cc1O [Ganetespib (STA9090)] | 70.9% | 62.6% | 65.4% | 67.1% | 108% | 84.6% | 107% |  |  |  |  |  |  |  |  |  |  | 
CC(C)c1cc(-c2n[nH]c(=O)n2-c2ccc3c(ccn3C)c2)c(O)cc1O [Ganetespib] |  |  |  |  |  |  |  | 21.5% | 92.1% | 109% | 55.2% | 57.1% | 40.7% | 54.7% | 11.5% | 9.65% | 91.1% | remaining activity at 1 µM (382 unique human kinases [12]; [19]): 47.6%; remaining activity at 1 µM (382 unique human kinases [16]; [19]): 88.2%
CCNC(=O)c1noc(-c2cc(C(C)C)c(O)cc2O)c1-c1ccc(CN2CCOCC2)cc1 [Luminespib] |  |  |  |  |  |  |  | 98.1% | 100% | 100% | 98.4% | 99.6% | 69.6% | 120% | 103% | 6.94% | 104% | % Enzyme Activity (relative to DMSO controls) (382 unique human kinases [8]): 97.46%; % Enzyme Activity (relative to DMSO controls) (382 unique human kinases [9]): 99.02%; % Enzyme Activity (relative to DMSO controls) (382 unique human kinases [10]): 98.52%; % Enzyme Activity (relative to DMSO controls) (382 unique human kinases [11]): 93.71%; % Enzyme Activity (relative to DMSO controls) (382 unique human kinases [12]; compound 10 uM): 65.29%; remaining activity at 10 µM (382 unique human kinases [12]; [20]): 65.6%; % Enzyme Activity (relative to DMSO controls) (382 unique human kinases [13]): 97.09%; % Enzyme Activity (relative to DMSO controls) (382 unique human kinases [14]): 69.57%; % Enzyme Activity (relative to DMSO controls) (382 unique human kinases [15]): 116.94%; % Enzyme Activity (relative to DMSO controls) (382 unique human kinases [16]; compound 10 uM): 100.90%; % Enzyme Activity (relative to DMSO controls) (382 unique human kinases [17]): 6.34%; % Enzyme Activity (relative to DMSO controls) (382 unique human kinases [18]): 102.76%
CCNC(=O)c1noc(-c2cc(C(C)C)c(O)cc2O)c1-c1ccc(CN2CCOCC2)cc1 [Luminespib (AUY-922)] | 103% | 97.2% | 96.8% | 80.2% | 86.3% | 100% | 111% |  |  |  |  |  |  |  |  |  |  | % Enzyme Activity (relative to DMSO controls) (382 unique human kinases [1]): 99.85%; % Enzyme Activity (relative to DMSO controls) (382 unique human kinases [2]): 96.41%; % Enzyme Activity (relative to DMSO controls) (382 unique human kinases [3]): 96.25%; % Enzyme Activity (relative to DMSO controls) (382 unique human kinases [4]): 80.06%; % Enzyme Activity (relative to DMSO controls) (382 unique human kinases [5]): 82.81%; % Enzyme Activity (relative to DMSO controls) (382 unique human kinases [6]): 99.10%; % Enzyme Activity (relative to DMSO controls) (382 unique human kinases [7]): 109.58%
